What was measured:
[1] = tested on: IκBα, NF-κB, p38, ERK, and JNK MAPK; assay: IκBα, NF-κB and MAPK activation in macrophages; type: cell-based, mouse
murine colon tumors = details: mouse; cited from earlier work
peritoneal macrophages = assay: Quantitative real-time PCR of cytokine mRNA in murine peritoneal macrophages
TBK1−/− MEFs = assay: Quantitative real-time PCR in mouse embryonic fibroblasts; details: 2 h

Compound: Cc1ccc2c(=O)c3cccc(CC(=O)O)c3oc2c1C [DMXAA, 5,6-dimethylxanthenone-4-acetic acid]
- activation of p38, ERK, and JNK MAPK ([1]; C57BL/6 macrophages): no discernible effect
- NF-κB translocation / binding activity ([1]; RAW 264.7 macrophage-like cell line): little effect
- level of IκBα protein ([1]; primary macrophages): little effect
- potency in vivo against murine colon tumors relative to FAA (murine colon tumors): 12 fold
- induced IFN-β mRNA and protein in MyD88−/− macrophages (peritoneal macrophages; 2 h mRNA, 24 h protein): not significantly altered
- induced TNF-α mRNA and protein in MyD88−/− macrophages (peritoneal macrophages; 2 h mRNA, 24 h protein): not significantly altered
- response to restimulation with either LPS or DMXAA after pretreatment (peritoneal macrophages; 24 h pretreatment, restimulated 1 h): induces a state of refractoriness
- TNF-α mRNA in the absence of TLR4 (peritoneal macrophages; TLR4−/− peritoneal macrophages, 2 h): induces TNF-α to wild-type levels
- induction of IFN-β protein and IP-10 mRNA compared with LPS (peritoneal macrophages; murine macrophages): much more potent inducer
- IFN-β steady-state mRNA relative to LPS (peritoneal macrophages; peritoneal exudate macrophages, 2 h, real-time PCR): ~10 fold
- RANTES mRNA in TBK1-deficient MEFs (TBK1−/− MEFs): fail to express
- TNF-α mRNA in TBK1-deficient MEFs (TBK1−/− MEFs): fail to express
